ChEMBL document CHEMBL5385858, “Identification of novel Pyrrolo[2,3-d]Pyrimidine-based KRAS G12C inhibitors with anticancer effects” (Eur J Med Chem, 2023)
Activity calls are given as the source filed them. No cut-off for these calls is given here.

Assays:
[1] = Toxicity in BALB/c-nu/nu mouse xenografted with human NCI-H358 cells assessed as histological change in heart at 10 to 30 mg/kg, po qd treated for 20 days by H and E staining based analysis; assay type: organism-based; conditions: in vivo, 480 h, dose 10-30 mg/kg, time 20 day
NCI-H358 [2] = assay: Antiproliferative activity against human NCI-H358 cells harboring KRAS G12C mutant assessed as inhibition of cell proliferation incubated for 3 days by CCK8 assay; assay type: functional, cell-based; conditions: NCI-H358, 72 h
NCI-H358 [3] = assay: Induction of apoptosis in human NCI-H358 cells assessed as necrotic cells at 0.1 uM incubated for 24 hrs by Annexin V-FITC/PI staining based flow cytometry (reference value: 1.88 %); assay type: functional
[4] = system: GTPase KRas (Homo sapiens), P01116 [G12C]; assay: Inhibition of KRAS G12C mutant in human […] cells assessed as decrease in ERK phosphorylation at 5 to 20 uM incubated for 4 hrs by Western blot analysis; assay type: cell-based; conditions: dose 5-20 µM
[5] = C0 in ICR mouse at 3 mg/kg, iv measured for 24 hrs by LC-MS/MS analysis; assay type: ADME, organism-based; conditions: in vivo
NCI-H358 [6] = assay: Induction of apoptosis in human NCI-H358 cells assessed as early apoptotic cells at 0.1 uM incubated for 24 hrs by Annexin V-FITC/PI staining based flow cytometry (reference value: 5.4 %); assay type: functional
[7] = system: GTPase KRas (Homo sapiens), P01116 [G12C]; assay: Inhibition of KRAS G12C mutant RBD in human NCI-H358 cells incubated for 24 hrs in presence of GTP by pull-down assay; assay type: cell-based; conditions: dose <= 1.0 µM
[8] = AUC (0 to infinity) in ICR mouse at 3 mg/kg, iv measured for 24 hrs by LC-MS/MS analysis; assay type: ADME, organism-based; parameters: dose 3 mg/kg, time 24 hrs, route iv; conditions: in vivo
NCI-H358 [9] = assay: Antitumor activity in human NCI-H358 cells xenografted in BALB/c-nu/nu mouse assessed as tumor growth inhibition at 10 mg/kg, po qd treated for 20 days relative to control; assay type: functional; conditions: Mus musculus, NCI-H358, 480 h, time 20 day, read-out: TGI
[10] = Toxicity in BALB/c-nu/nu mouse xenografted with human NCI-H358 cells assessed as histological change in spleen at 10 to 30 mg/kg, po qd treated for 20 days by H and E staining based analysis; assay type: organism-based; conditions: in vivo, 480 h, dose 10-30 mg/kg, time 20 day
NCI-H358 [11] = assay: Induction of apoptosis in human NCI-H358 cells assessed as necrotic cells at 0.3 uM incubated for 24 hrs by Annexin V-FITC/PI staining based flow cytometry (reference value: 1.88 %); assay type: functional
NCI-H358 [12] = assay: In vivo inhibition of KRAS G12C mutant in human NCI-H358 cells xenografted in BALB/c-nu/nu mouse assessed as decrease in ERK phosphorylation at 10 to 30 mg/kg, po qd treated for 20 days by Western blot analysis; assay type: functional, organism-based; conditions: dose 10-30 mg/kg, time 20.0 day
[13] = Toxicity in BALB/c-nu/nu mouse xenografted with human NCI-H358 cells assessed as drug tolerance at 10 to 30 mg/kg, po qd treated for 20 days; assay type: organism-based; conditions: in vivo, 480 h, dose 10-30 mg/kg, time 20 day
[14] = AUC (0 to infinity) in ICR mouse at 30 mg/kg, po measured for 24 hrs by LC-MS/MS analysis; assay type: ADME, organism-based; parameters: time 24 hrs, dose 30 mg/kg, route po; conditions: in vivo
SOS1-KRAS = SOS1-KRAS (Homo sapiens, UniProt P01116, G12C); assay: Inhibition of KRAS G12C mutant/SOS1 (unknown origin) interaction incubated for 2 hrs in presence of GTP by HTRF assay; assay type: protein-complex assay
[15] = system: GTPase KRas (Homo sapiens), P01116 [G12C]; assay: Inhibition of KRAS G12C mutant in human NCI-H358 cells assessed as decrease in AKT phosphorylation upto 5 uM by Western blot analysis; assay type: cell-based; conditions: time 2-72 hrs, TDE = time-dependent effect
NCI-H358 [16] = assay: Antiproliferative activity against human NCI-H358 cells assessed as inhibition of cell proliferation at 0.03 uM incubated for 14 days by crystal violet staining based colony formation assay; assay type: functional; conditions: time 14.0 day
MIA PaCa-2 = assay: Antiproliferative activity against human MIA PaCa-2 cells harboring KRAS G12C mutant assessed as inhibition of cell proliferation incubated for 3 days by CCK8 assay; assay type: functional, cell-based; conditions: MIA PaCa-2, 72 h
NCI-H358 [17] = assay: Inhibition of cell migration in human NCI-H358 cells at 0.1 to 1 uM measured for 48 hrs by wound scratch assay; assay type: functional, cell-based; conditions: dose 0.1-1 µM
NCI-H358 [18] = assay: Induction of apoptosis in human NCI-H358 cells assessed as early apoptotic cells at 1 uM incubated for 24 hrs by Annexin V-FITC/PI staining based flow cytometry (reference value: 5.4 %); assay type: functional
[19] = Toxicity in BALB/c-nu/nu mouse xenografted with human NCI-H358 cells assessed as body weight loss at 10 to 30 mg/kg, po qd treated for 20 days; assay type: organism-based; conditions: in vivo, 480 h, dose 10-30 mg/kg, time 20 day
[20] = Toxicity in BALB/c-nu/nu mouse xenografted with human NCI-H358 cells assessed as morphological damage in heart at 10 to 30 mg/kg, po qd treated for 20 days; assay type: organism-based; conditions: in vivo, 480 h, dose 10-30 mg/kg, time 20 day
[21] = Toxicity in BALB/c-nu/nu mouse xenografted with human NCI-H358 cells assessed as morphological damage in kidney at 10 to 30 mg/kg, po qd treated for 20 days; assay type: organism-based; conditions: in vivo, 480 h, dose 10-30 mg/kg, time 20 day
[22] = Toxicity in BALB/c-nu/nu mouse xenografted with human NCI-H358 cells assessed as histological change in liver at 10 to 30 mg/kg, po qd treated for 20 days by H and E staining based analysis; assay type: organism-based; conditions: in vivo, 480 h, dose 10-30 mg/kg, time 20 day
[23] = system: GTPase KRas (Homo sapiens), P01116 [G12C]; assay: Inhibition of KRAS G12C mutant in human NCI-H358 cells assessed as decrease in ERK phosphorylation incubated for 2 to 72 hrs by Western blot analysis; assay type: cell-based; conditions: time 2-72 hrs
NCI-H358 [24] = assay: Induction of apoptosis in human NCI-H358 cells assessed as early apoptotic cells at 0.3 uM incubated for 24 hrs by Annexin V-FITC/PI staining based flow cytometry (reference value: 5.4 %); assay type: functional
A549 = assay: Antiproliferative activity against human A549 cells harboring KRAS G12S mutant assessed as inhibition of cell proliferation incubated for 3 days by CCK8 assay; assay type: functional, cell-based; conditions: A549, 72 h
NCI-H358 [25] = assay: Induction of apoptosis in human NCI-H358 cells assessed as necrotic cells at 1 uM incubated for 24 hrs by Annexin V-FITC/PI staining based flow cytometry (reference value: 1.88 %); assay type: functional
[26] = Tmax in ICR mouse at 30 mg/kg, po measured for 24 hrs by LC-MS/MS analysis; assay type: ADME, organism-based; conditions: in vivo

GTPase KRas (Homo sapiens), P01116 [G12C], sequence (P01116 whole entry G12C): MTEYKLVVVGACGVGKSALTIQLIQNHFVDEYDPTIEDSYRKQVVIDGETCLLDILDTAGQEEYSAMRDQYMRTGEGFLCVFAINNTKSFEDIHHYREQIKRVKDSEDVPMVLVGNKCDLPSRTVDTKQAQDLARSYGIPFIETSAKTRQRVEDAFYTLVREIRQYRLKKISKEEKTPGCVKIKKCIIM
SOS1-KRAS, sequence (P01116 whole entry G12C, looked up): as the sequence (P01116 whole entry G12C) above

C=CC(=O)N1CCN(c2nc(OC[C@@]34CCCN3C[C@H](F)C4)nc3c2cc(-c2cccc4cccc(C)c24)n3C)C[C@@H]1CC#N
Activity [1]: Non-Toxic | IC50 (NCI-H358 [2]): 0.16 µM | Activity (NCI-H358 [3]): 1.17% | inhibition [4]: Active | C0 at 24 h [5]: 1960 ng/mL | Activity (NCI-H358 [6]): 10.5% | inhibition [7]: Dose-Dependent Effect | AUC(0-inf) [8]: 804 ng·h/mL | inhibition in vivo at 10 mg/kg (NCI-H358 [9]): 65.4% | Activity [10]: Non-Toxic | Activity (NCI-H358 [11]): 1.06% | inhibition (NCI-H358 [12]): Active | Activity [13]: Non-Toxic | AUC(0-inf) [14]: 835 ng·h/mL | IC50 (SOS1-KRAS): 0.21 µM | inhibition [15]: Tde | inhibition (NCI-H358 [16]): Active | IC50 (MIA PaCa-2): 0.87 µM | Activity (NCI-H358 [17]): Active | Activity (NCI-H358 [18]): 22.4% | Activity [19]: Non-Toxic | Activity [20]: Non-Toxic | Activity [21]: Non-Toxic | Activity [22]: Non-Toxic | inhibition [23]: Dose-Dependent Effect | Activity (NCI-H358 [24]): 11.8% | IC50 (A549): 29.9 µM | Activity (NCI-H358 [25]): 1.03% | Tmax [26]: 4.98 min
